In ChEMBL document CHEMBL4020751, “Synthesis and in vitro biological evaluation of novel coumarin derivatives containing isoxazole moieties on melanin synthesis in B16 cells and inhibition on bacteria” (Bioorg Med Chem Lett, 2017):

What was measured:
[1] = test system: Escherichia coli; test: Antibacterial activity against Escherichia coli ATCC 11229 assessed as diameter of inhibition zone after 24 hrs by agar well diffusion method; format: functional
[2] = test system: Staphylococcus aureus; test: Antibacterial activity against Staphylococcus aureus ATCC 6538 assessed as diameter of inhibition zone after 24 hrs by agar well diffusion method; format: functional
[3] = test system: Candida albicans; test: Antifungal activity against Candida albicans ATCC 10231 assessed as diameter of inhibition zone after 24 hrs by agar well diffusion method; format: functional
[4] = test system: B16; test: Induction of melanin synthesis in mouse B16 cells assessed as increase in melanin content at 50 uM after 48 hrs measured by spectrophotometric method relative to control; format: functional
[5] = test system: B16; test: Potency index, ratio of compound activity to 8-MOP activity for induction of melanin synthesis in mouse B16 cells; format: functional
[6] = test system: B16; test: Cytotoxicity against mouse B16 cells at 50 uM after 24 hrs by CCK8 assay; format: cell-based; conditions: b16, 24 h

Row | SMILES | diameter of the inhibition zone (DIZ) [1] | diameter of the inhibition zone (DIZ) [2] | diameter of the inhibition zone (DIZ) [3] | Activity [4] [%] | Ratio [5] | Activity [6]
1 | COc1ccc(-c2cc(COc3ccc4c(C)cc(=O)oc4c3)on2)cc1 | <=7 mm | <=7 mm | <=7 mm | 129.45 | – | –
2 | Cc1cc(=O)oc2cc(OCc3cc(-c4ccccc4)no3)ccc12 | <=7 mm | <=7 mm | <=7 mm | 153.35 | – | –
3 | Cc1cc(=O)oc2cc(OCc3cc(-c4ccc5c(c4)OCCO5)no3)ccc12 | <=7 mm | <=7 mm | <=7 mm | 178.33 | – | –
4 | Cc1cc(=O)oc2cc(OCc3cc(-c4cccc(F)c4)no3)ccc12 | <=7 mm | <=7 mm | 7 mm | 121.15 | – | –
5 | Cc1cc(=O)oc2cc(OCc3cc(-c4cccc(Cl)c4)no3)ccc12 | <=7 mm | <=7 mm | 7 mm | 242.18 | 1.6 | Toxic
6 | Cc1cc(=O)oc2cc(OCc3cc(-c4ccc(Cl)c(F)c4)no3)ccc12 | <=7 mm | <=7 mm | 7 mm | 182.27 | – | –
7 | Cc1cc(=O)oc2cc(OCc3cc(-c4cc(Cl)cc(Cl)c4)no3)ccc12 | <=7 mm | <=7 mm | 10 mm | 389.95 | 2.6 | Toxic
8 | Cc1cc(=O)oc2cc(OCc3cc(-c4cc(I)ccc4F)no3)ccc12 | <=7 mm | <=7 mm | <=7 mm | 169.71 | – | –
9 | Cc1cc(=O)oc2cc(OCc3cc(-c4ccc(F)cc4)no3)ccc12 | <=7 mm | <=7 mm | <=7 mm | 115.44 | – | –
10 | Cc1cc(=O)oc2cc(OCc3cc(-c4ccc(F)c(F)c4)no3)ccc12 | <=7 mm | <=7 mm | 10 mm | 156.64 | – | –
11 | COc1ccccc1-c1cc(COc2ccc3c(C)cc(=O)oc3c2)on1 | <=7 mm | <=7 mm | <=7 mm | 145.05 | – | –
12 | Cc1cc(=O)oc2cc(OCc3cc(-c4ccc(Cl)cc4)no3)ccc12 | <=7 mm | <=7 mm | <=7 mm | 191.96 | – | –
13 | Cc1cc(=O)oc2cc(OCc3cc(-c4cccc(OC(F)(F)F)c4)no3)ccc12 | <=7 mm | <=7 mm | <=7 mm | 203.27 | – | Toxic
14 | Cc1cc(=O)oc2cc(OCc3cc(-c4ccc(Cl)c(Cl)c4)no3)ccc12 | <=7 mm | <=7 mm | 10 mm | 204.12 | – | Toxic
15 | Cc1cc(=O)oc2cc(OCc3cc(-c4cc(F)cc(F)c4)no3)ccc12 | <=7 mm | <=7 mm | 10 mm | 176.55 | – | –
16 | C[C@@H]1[C@H](O)[C@@H](C)/C=C/C=C/C=C/C=C/C=C/C=C/C=C/[C@H](O[C@@H]2O[C@H](C)[C@@H](O)[C@H](N)[C@@H]2O)C[C@@H]2O[C@](O)(C[C@@H](O)C[C@@H](O)[C@H](O)CC[C@@H](O)C[C@@H](O)CC(=O)O[C@H]1C)C[C@H](O)[C@H]2C(=O)O [AMPHOTERICIN B] | <=7 mm | <=7 mm | 11 mm | – | – | –
17 | CC1(C)S[C@@H]2[C@H](NC(=O)[C@H](N)c3ccccc3)C(=O)N2[C@H]1C(=O)O [AMPICILLIN] | – | 19 mm | <=7 mm | – | – | –
18 | Cc1cc(=O)oc2cc(O)ccc12 [HYMECROMONE] | <=7 mm | <=7 mm | 7 mm | 112.2 | – | –
19 | COc1c2occc2cc2ccc(=O)oc12 [METHOXSALEN] | <=7 mm | <=7 mm | <=7 mm | 149.39 | – | –
